According to ChEMBL document CHEMBL1201862, “PubChem BioAssay data set” (2004):
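Cultured in 96-well plates, cells were exposed to test compound for 48 hours across five concentrations. GI50 is the concentration that inhibits growth by half.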 Activity calls are given as the source filed them. Cut-off read from the data, not from the text of the source: active = GI50 up to about 1.1 µM and inactive = higher. Square brackets hold non-standard residues; d marks the D form. Peptide text beside a SMILES is read from it. pGlu = O=C1CC[C@@H](C(=O)O)N1; Thz = O=C(O)[C@@H]1CSCN1

Assays:
Assay in all cases: DTP human tumour cell line panel, 48 h
[1] = test system: SNB-75
[2] = test system: A549
[3] = test system: NCI-H226
[4] = test system: MDA-N
[5] = test system: K562
[6] = test system: MDA-MB-435
[7] = test system: U-251
[8] = test system: SK-MEL-5
[9] = test system: SF-268
[10] = test system: NCI-H23
[11] = test system: PC-3
[12] = test system: HL-60
[13] = test system: SN12C
[14] = test system: COLO 205
[15] = test system: SNB-19
[16] = test system: MOLT-4
[17] = test system: MDA-MB-231
[18] = test system: HCC 2998
[19] = test system: UACC-62

Structure (SMILES) | GI50 [1] | GI50 [2] | GI50 [3] | GI50 [4] | GI50 [5] | GI50 [6] | GI50 [7] | GI50 [8] | GI50 [9] | GI50 [10] | GI50 [11] | GI50 [12] | GI50 [13] | GI50 [14] | GI50 [15] | GI50 [16] | GI50 [17] | GI50 [18] | GI50 [19]
O=C1/C(=C\c2ccc([N+](=O)[O-])o2)SC2NC(COc3ccc(Cl)cc3)=NN12 (stereo not given) | 15.5 µM (inactive) | 18.3 µM (inactive) | 18.6 µM (inactive) | 3.48 µM (inactive) | 2.99 µM (inactive) | 4.2 µM (inactive) | 19.3 µM (inactive) | 12.8 µM (inactive) | 3.48 µM (inactive) | 10 µM (inactive) | 9.73 µM (inactive) | 2.16 µM (inactive) | 14 µM (inactive) | 3.37 µM (inactive) | 16.7 µM (inactive) | 3.02 µM (inactive) | 3.31 µM (inactive) | – | –
CC(C)C1(NC(=O)C2CC3c4cccc5[nH]cc(c45)CC3N(C)C2)OC2(O)C3CCCN3C(=O)C(Cc3ccccc3)N2C1=O (stereo not given) | 6.71 µM (inactive) | 7.21 µM (inactive) | – | 22.3 µM (inactive) | – | 19.4 µM (inactive) | 34.3 µM (inactive) | 27.7 µM (inactive) | > 100 µM (inactive) | 30.5 µM (inactive) | 5.62 µM (inactive) | 6.62 µM (inactive) | > 100 µM (inactive) | 14.2 µM (inactive) | 57.7 µM (inactive) | 3.81 µM (inactive) | 17.7 µM (inactive) | 19 µM (inactive) | 65.8 µM (inactive)
COc1cc(C(=O)OC2CC(C)=CC[C@@]3(C)CC[C@](O)(C(C)C)C23)ccc1O (stereo not given in full) | 18.7 µM (inactive) | 12.9 µM (inactive) | 15.6 µM (inactive) | 18.3 µM (inactive) | 17.4 µM (inactive) | 40.5 µM (inactive) | 31.3 µM (inactive) | 17.5 µM (inactive) | 19.5 µM (inactive) | 17.8 µM (inactive) | 17.4 µM (inactive) | 31.6 µM (inactive) | 18.4 µM (inactive) | 20 µM (inactive) | 19.2 µM (inactive) | 13.2 µM (inactive) | 15 µM (inactive) | 14.5 µM (inactive) | –
COC(=O)[C@@]1(NC(=O)C(CC(=O)OC(C)(C)C)NC(=O)OC(C)(C)C)C[C@H]1C (stereo not given in full) | > 100 µM (inactive) | > 100 µM (inactive) | > 100 µM (inactive) | > 100 µM (inactive) | > 100 µM (inactive) | > 100 µM (inactive) | > 100 µM (inactive) | > 100 µM (inactive) | > 100 µM (inactive) | > 100 µM (inactive) | > 100 µM (inactive) | – | > 100 µM (inactive) | > 100 µM (inactive) | > 100 µM (inactive) | > 100 µM (inactive) | > 100 µM (inactive) | > 100 µM (inactive) | > 100 µM (inactive)
O=C(NCCc1n[nH]c2c1C(=O)C=C(Nc1ccccc1)C2=O)OCc1ccccc1 | > 100 µM (inactive) | > 100 µM (inactive) | > 100 µM (inactive) | > 100 µM (inactive) | – | > 100 µM (inactive) | > 100 µM (inactive) | > 100 µM (inactive) | > 100 µM (inactive) | > 100 µM (inactive) | > 100 µM (inactive) | > 100 µM (inactive) | > 100 µM (inactive) | > 100 µM (inactive) | > 100 µM (inactive) | > 100 µM (inactive) | > 100 µM (inactive) | – | 8.09 µM (inactive)
Clc1cc(OCC23CC4CC(CC(C4)C2)C3)nc(OCC23CC4CC(CC(C4)C2)C3)n1 | > 100 µM (inactive) | > 100 µM (inactive) | – | > 100 µM (inactive) | > 100 µM (inactive) | > 100 µM (inactive) | > 100 µM (inactive) | > 100 µM (inactive) | > 100 µM (inactive) | > 100 µM (inactive) | > 100 µM (inactive) | > 100 µM (inactive) | > 100 µM (inactive) | > 100 µM (inactive) | > 100 µM (inactive) | > 100 µM (inactive) | > 100 µM (inactive) | > 100 µM (inactive) | > 100 µM (inactive)
CCOC(=O)NN(C(=O)OCC)c1ccc(/N=N/c2ccc(OC)cc2)n1C | 10.3 µM (inactive) | 23 µM (inactive) | 26.2 µM (inactive) | 19.7 µM (inactive) | 23.1 µM (inactive) | 22.7 µM (inactive) | 29.9 µM (inactive) | 17.5 µM (inactive) | – | 32.6 µM (inactive) | 15.3 µM (inactive) | 19.2 µM (inactive) | 37.1 µM (inactive) | 21.7 µM (inactive) | – | 43.7 µM (inactive) | 19.8 µM (inactive) | 31.3 µM (inactive) | 99.1 µM (inactive)
O=C(Nc1nnc(-c2c(Cl)c(Cl)c(Cl)c(Cl)c2-c2nc3cc(C(=O)c4ccccc4)ccc3[nH]2)o1)c1ccccc1 | 15.1 µM (inactive) | 14.9 µM (inactive) | 16.7 µM (inactive) | 3.19 µM (inactive) | 5.78 µM (inactive) | 3.89 µM (inactive) | 13.6 µM (inactive) | 5.07 µM (inactive) | – | 18.9 µM (inactive) | 13 µM (inactive) | 11.4 µM (inactive) | 15.3 µM (inactive) | 12.2 µM (inactive) | 15.2 µM (inactive) | 13.7 µM (inactive) | 17.7 µM (inactive) | – | –
Nc1ncnc2c1ncn2[C@H]1C=C[C@@H](NO)C1 | > 100 µM (inactive) | > 100 µM (inactive) | > 100 µM (inactive) | > 100 µM (inactive) | > 100 µM (inactive) | > 100 µM (inactive) | > 100 µM (inactive) | > 100 µM (inactive) | > 100 µM (inactive) | > 100 µM (inactive) | > 100 µM (inactive) | – | > 100 µM (inactive) | > 100 µM (inactive) | > 100 µM (inactive) | > 100 µM (inactive) | > 100 µM (inactive) | > 100 µM (inactive) | > 100 µM (inactive)
O=C(O)C[C@@H]1[C@@H](O)[C@@H](O)CN2C(=O)c3ccccc3[C@H]12 | > 100 µM (inactive) | > 100 µM (inactive) | > 100 µM (inactive) | > 100 µM (inactive) | > 100 µM (inactive) | > 100 µM (inactive) | > 100 µM (inactive) | > 100 µM (inactive) | > 100 µM (inactive) | > 100 µM (inactive) | > 100 µM (inactive) | – | > 100 µM (inactive) | > 100 µM (inactive) | > 100 µM (inactive) | > 100 µM (inactive) | > 100 µM (inactive) | > 100 µM (inactive) | > 100 µM (inactive)
COc1cccc(N2N=C3c4ccccc4-n4c(nc5ccccc54)C3C2N)c1 (stereo not given) | > 100 µM (inactive) | > 100 µM (inactive) | – | > 100 µM (inactive) | – | 62.8 µM (inactive) | > 100 µM (inactive) | 20.7 µM (inactive) | > 100 µM (inactive) | > 100 µM (inactive) | > 100 µM (inactive) | > 100 µM (inactive) | > 100 µM (inactive) | > 100 µM (inactive) | > 100 µM (inactive) | – | 92.3 µM (inactive) | > 100 µM (inactive) | > 100 µM (inactive)
O=C(c1ccccc1)c1ccc(N2C(=O)/C(=C/c3cccc(Oc4ccccc4)c3)N=C2c2ccccc2)c(N2C(=O)/C(=C/c3cccc(Oc4ccccc4)c3)N=C2c2ccccc2)c1 | 23.9 µM (inactive) | 31.6 µM (inactive) | – | 5.09 µM (inactive) | 9.42 µM (inactive) | 4.72 µM (inactive) | 31.3 µM (inactive) | 13.3 µM (inactive) | 36.3 µM (inactive) | 29.6 µM (inactive) | 26.5 µM (inactive) | 6.47 µM (inactive) | 92.3 µM (inactive) | 18 µM (inactive) | 38.5 µM (inactive) | 11.9 µM (inactive) | 45.8 µM (inactive) | 20 µM (inactive) | 11.9 µM (inactive)
CC(CCc1ccccc1)NCC(O)n1c(/N=N/N(C)C)nc2c1c(=O)n(C)c(=O)n2C (stereo not given) | 9.62 µM (inactive) | > 100 µM (inactive) | > 100 µM (inactive) | > 100 µM (inactive) | > 100 µM (inactive) | > 100 µM (inactive) | > 100 µM (inactive) | 78.7 µM (inactive) | > 100 µM (inactive) | > 100 µM (inactive) | > 100 µM (inactive) | 66.7 µM (inactive) | – | > 100 µM (inactive) | > 100 µM (inactive) | > 100 µM (inactive) | > 100 µM (inactive) | – | > 100 µM (inactive)
COc1ccc2c(c1)/C(=C\c1c(Cl)nc3sc(C)cn13)C(=O)N2 | 4.98 µM (inactive) | 3.79 µM (inactive) | – | 0.418 µM (active) | 0.521 µM (active) | 0.286 µM (active) | 3.21 µM (inactive) | 2.16 µM (inactive) | 4.31 µM (inactive) | 4.12 µM (inactive) | 2.78 µM (inactive) | 1.34 µM (inactive) | 7.05 µM (inactive) | 1.6 µM (inactive) | 3.84 µM (inactive) | 1.54 µM (inactive) | 5.65 µM (inactive) | 6.43 µM (inactive) | 3.29 µM (inactive)
O=C1CC[C@@H](C(=O)N2CSC[C@H]2C(=O)O)N1 [PIDOTIMOD] ([pGlu]-[Thz]-OH) | > 100 µM (inactive) | > 100 µM (inactive) | > 100 µM (inactive) | > 100 µM (inactive) | > 100 µM (inactive) | > 100 µM (inactive) | – | > 100 µM (inactive) | > 100 µM (inactive) | > 100 µM (inactive) | > 100 µM (inactive) | > 100 µM (inactive) | > 100 µM (inactive) | – | > 100 µM (inactive) | > 100 µM (inactive) | > 100 µM (inactive) | > 100 µM (inactive) | > 100 µM (inactive)
